Measurements as given in patent US12521398B2, “Composition for treating synucleinopathies” (STANDIGM INC., priority 2019, dated 2026).
Read-outs that look alike come from different tables or passages of the source.

What was measured:
Type in all cases: cell-based
α-synuclein = molecular target: T1, α-synuclein (Homo sapiens, UniProt P37840); test: Dual chamber assay, cell-to-cell transmission of α-synuclein in SH-SY5Y cells; conditions: 12 hours
T1 construct: expressed in transfected cells; host or cells: SH-SY5Y
Method: A slide glass was included in the plate to stain the cells after the cell culture.
In an insert well of the 12-well plate as the apical chamber, an SH-SY5Y cell line in which α-synuclein was over-expressed was seeded at a density of 4×10^4 cells/well, and in the 12-well plate as the basal chamber, an SH-SY5Y cell line in which α-synuclein was not over-expressed was seeded at a density of 4×10^4 cells/well and they were incubated at a constant temperature. The next day, the insert well was transferred to a place where the 12-well plate was placed to form a dual chamber. Thereafter, the chamber was treated with DMSO or 5 μM efavirenz and incubated at a constant temperature for 12 hours. The SH-SY5Y cells in the plate in which the chamber was treated with DMSO were used as the control. Then, the SH-SY5Y cells in the plate were subjected to immunostaining and observed using a confocal microscope. During the immunostaining, α-synuclein was stained red, and the nuclei were stained blue. Also, fluorescence intensities of α-synuclein in the control and the cells treated with efavirenz were compared. A scale bar represents 20 μm. **P<0.01, ***P<0.001 against the control. […] Also, when the fluorescence intensities of the immunostained α-synuclein were compared, the fluorescence intensity in the cells treated with efavirenz decreased by approximately 80%, compared with that of the control (FIG. 2A).
In the case of the naphazoline-administered group, the cells treated with PBS were used as the control, and the cells treated with DMSO were used as the control in the case of the chlorhexidine- and tenofovir-administered groups. A scale bar represents 20 μm. **P<0.01 and ***P<0.001 against the control.

A53T α-synuclein = molecular target: T2, A53T α-synuclein (Homo sapiens, UniProt P37840, A53T); test: Co-culture assay of A53T EGFP and A53T mcherry SH-SY5Y cells, aggregation of α-synuclein
T2 construct: expressed in transfected cells; host or cells: SH-SY5Y (lentiviral transduction)
Method: A degeneration process of converting monomeric α-synuclein into aggregates may mainly cause Parkinson's disease. Therefore, it was tested whether efavirenz is involved in the propagation process of the over-expressed monomeric A53T α-synuclein to adjacent cells, which is converting the over-expressed monomeric α-synuclein into aggregates.
For this purpose, an SH-SY5Y cell line (A53T EGFP cells) in which EGFP-labeled A53T α-synuclein was over-expressed and an SH-SY5Y cell line (A53T mcherry cells) in which mcherry-labeled A53T α-synuclein was over-expressed were prepared using a lentivirus. Thereafter, the A53T EGFP cells and the A53T mcherry cells were mixed to prepare co-cultured cells. Then, the co-cultured cells were treated with DMSO or 5 μM efavirenz, and co-cultured in the presence of 50 μM retinoic acid (RA) for 5 days. The co-cultured cells treated with DMSO were used as the control. At 5 days of the co-culturing, the aggregated α-synuclein (inclusion body-positive cells) was confirmed using a confocal microscope (the rightmost image of fluorescence images shown in FIG. 3A). Also, each of a combined distribution of EGFP and mcherry in the A53T EGFP cells and a combined distribution of mcherry and EGFP in the A53T mcherry cells was confirmed. […] In the rightmost image of the fluorescence images of FIG. 3A, dots indicated in yellow represent the combining of mcherry and EGFP signals in the cells. In the rightmost image of the fluorescence images of FIG. 3A (a diagram in which EGFP+mcherry signals were combined), the dots indicated in yellow were counted to calculate ratios of the dots to the whole cells, and then plotted on a bar graph. A scale bar represents 20 μm, and ***P<0.001 against the control.
Also, to test whether chlorhexidine, naphazoline, and tenofovir were involved in the process of moving the over-expressed monomeric A53T α-synuclein to adjacent cells to convert the over-expressed monomeric α-synuclein into aggregates, the cells were treated with either 10 μM chlorhexidine, 100 μM naphazoline, or 20 μM tenofovir, and then tested in the same manner as in the experiment for efavirenz. However, in the case of the naphazoline-administered group, the cells treated with PBS were used as the control, and the cells treated with DMSO were also used as the control in the case of the chlorhexidine- and tenofovir-administered groups. A scale bar represents 20 μm.

SH-SY5Y cell line = test: Cytotoxicity, cell viability by MTT test; conditions: 24 hours
Method: An SH-SY5Y cell line (ATCC) was used to confirm the cytotoxicity of efavirenz.
The SH-SY5Y cell line was seeded in a 96-well plate, cultured, treated with an increasing concentration (0, 5, 25 μM) of efavirenz, and then incubated at a constant temperature for 24 hours. Thereafter, cell viability was measured using an MTT test method. Cells treated with 0 μM efavirenz were used as the control. **P<0.01 against the control.
Also, in the next experiment, the cytotoxicities of chlorhexidine (N,N″″-1,6-hexanediylbis[N′-(4-chlorophenyl)(imidocarbon imidic diamide)]), naphazoline(2-(1-naphthylmethyl)-4,5-dihydro-1H-imidazole), and tenofovir (({[(2R)-1-(6-amino-9H-purin-9-yl)-[…]]oxy}methyl)phosphonic acid) to be used as reference drugs were tested in the same manner as in the cytotoxicity experiment of efavirenz. Cells were treated with chlorhexidine at a concentration of 0, 10, 100 μM, treated with naphazoline at a concentration of 0, 100, 200 μM, and treated with tenofovir at a concentration of 0, 20, 30 μM, and cells treated with each control drug at a concentration of 0 μM was used as the control. *P<0.05, ***P<0.001 against the control.

[1] = 10 μM, 5 days co-culture, DMSO control
[2] = 20 μM, 5 days co-culture, DMSO control

With `[H]/N=C(\N/C(=N/[H])NCCCCCCNC(=N)NC(=N)Nc1ccc(Cl)cc1)Nc1ccc(Cl)cc1` [chlorhexidine, N,N″″-1,6-hexanediylbis[N′-(4-chlorophenyl)(imidocarbonimidic diamide)]] the “cell-to-cell transmission of α-synuclein compared with the control (fluorescence image)” value (α-synuclein; 10 μM, DMSO control) was “remarkably increased”, the “amount of aggregated α-synuclein compared with the control cells” value (“amount … compared with the control cells” for short) (A53T α-synuclein; [1]) was “increased or were not significantly different” and the “distribution of α-synuclein compared with the control cells” value (A53T α-synuclein; [1]) was “increased or were not significantly different”.
With `O=C1Nc2ccc(Cl)cc2[C@@](C#CC2CC2)(C(F)(F)F)O1` [efavirenz, (4S)-6-chloro-(cyclopropylethynyl)-1,4-dihydro-4-(trifluoromethyl)-2H-3,1-benzoxazin-2-one] the “decrease of fluorescence intensity of immunostained α-synuclein compared with the control” value (α-synuclein; 5 μM, DMSO control) was “approximately 80%”.
In the case of `c1ccc2c(CC3=NCCN3)cccc2c1` [naphazoline, 2-(1-naphthylmethyl)-4,5-dihydro-1H-imidazole], the “cell-to-cell transmission of α-synuclein compared with the control (fluorescence image)” value (α-synuclein; 100 μM, PBS control) was “remarkably increased”, the “distribution of α-synuclein compared with the control cells” value (A53T α-synuclein) was “increased or were not significantly different” and the “amount … compared with the control cells” value (A53T α-synuclein; 100 μM, 5 days co-culture, PBS control) was “increased or were not significantly different”.
`C[C@H](Cn1cnc2c(N)ncnc21)OCP(=O)(O)O` [tenofovir] was tested, and the “cell viability compared with the control” value (SH-SY5Y cell line; 20 μM) was “not changed significantly”, the “cell viability compared with the control” value (SH-SY5Y cell line; 30 μM) was “significant decrease” and the “cell-to-cell transmission of α-synuclein compared with the control (fluorescence image)” value (α-synuclein; 20 μM, DMSO control) was “remarkably increased”. For the same molecule, the “amount … compared with the control cells” value (A53T α-synuclein; [2]) was “increased or were not significantly different” and the “distribution of α-synuclein compared with the control cells” value (A53T α-synuclein; [2]) was “increased or were not significantly different”.
